# Test results taken from patent US11371013B2, “Culture medium composition and method of culturing cell or tissue using thereof” (Nissan Chemical Industries, Ltd., priority 2012, dated 2022).
# Starred links: 1 amine or outer side, 2 acyl side, 3 side chain; linkers in the order of their positions; H or OH if unused. Positions of bridges follow the written chain, without caps; N, C: chain ends. Non-standard residues stand in square brackets, D forms with d. Residues, ends and D or L forms follow the SMILES beside them. Chains are numbered I, II in the order given. Actinocin(9to1) = Cc1c2oc3c(C)ccc(C(=O)[*:1])c3nc-2c(C(=O)[*:2])c(N)c1=O; NMeV = CN[C@H](C(=O)O)C(C)C; Sar = CNCC(=O)O
# Assays:
# Format in all cases: cell-based, human
# HeLa cells [1] = assay: HeLa cell proliferation test using Trametinib and MK-2206; settings: drug from day 1 for 5 days
# Protocol: (§1) This aqueous solution was sterilized at 121° C. for 20 min in an autoclave.
# (§2) Each plate was cultured by being stood still in a CO2 incubator (37° C., 5% CO2). […] The anticancer drugs used were Trametinib (manufactured by Santa Cruz, MEK inhibitor) and MK-2206 (manufactured by Santa Cruz, Akt inhibitor). To the culture medium on day 6 was added an ATP reagent (150 μL) (CellTiter-Glo (registered trade mark) Luminescent Cell Viability Assay, manufactured by Promega) to give a suspension, which was stood for about 10 min at room temperature, and the luminescence intensity (RLU value) was measured by FlexStation3 (manufactured by Molecular Devices), and the number of viable cells was measured by subtracting the luminescence value of the medium alone.
# A549 cells = assay: A549 cell proliferation test using Trametinib and MK-2206; settings: drug from day 1 for 5 days
# Protocol: This aqueous solution was sterilized at 121° C. for 20 min is in an autoclave.
# as §2
# HeLa cells [2] = assay: Comparison with single layer culture method in cell proliferation test using agent for inducing apoptosis; settings: day 4
# Protocol: as §1
# Each plate was cultured by being stood still in a CO2 incubator (37° C., 5% CO2). […] To the culture medium on day 4 was added an ATP reagent (150 μL) (CellTiter-Glo (registered trade mark) Luminescent Cell Viability Assay, manufactured by Promega) to give a suspension, which was stood for about 10 min at room temperature, and the luminescence intensity (RLU value) was measured by FlexStation3 (manufactured by Molecular Devices), and the number of viable cells was measured by subtracting the luminescence value of the medium alone. For WST-8 measurement, a WST-8 solution (manufactured by is DOJINDO Laboratories, 15 μL) was added, the mixture was incubated at 37° C. for 100 min, the absorbance at 450 nm was measured by an absorbance spectrometer (manufactured by Molecular Devices, SPECTRA MAX 190), and the number of viable cells was measured by subtracting the absorbance of the medium alone.
# HeLa cells [3] = assay: Cell proliferation test using various anticancer drugs; settings: HeLa cells 5 days later, DAG 0.030% medium
# Protocol: This aqueous solution was sterilized at 121° C. for 20 min in an autoclave. […] The anticancer drug used was Adriamycin (manufactured by WAKO), Paclitaxel (manufactured by WAKO) or Mitomycin C (manufactured by WAKO).
# Successively, this plate was cultured by being stood still in a CO2 incubator (37° C., 5% CO2) for 7 days. After culturing for 3, 5, 7 days, to the culture medium was added a WST-8 solution (manufactured by DOJINDO Laboratories, 20 μL), and the mixture was incubated at 37° C. for 100 min. The absorbance at 450 nm was measured by an absorbance spectrometer (manufactured by Molecular Devices, SPECTRA MAX 190), and the number of viable cells was measured by subtracting the absorbance of the medium alone. The culture medium containing the cells after 5 days of culture was stirred with a pipette and the obtained stirred solution (20 μL) was mixed with Trypan Blue stain 0.4% (manufactured by Invitrogen, 20 μL) and the cell density was measured under a microscope.
# [4] = 0.03 μM, deacylated gellan gum addition group (0.015%)
# [5] = 0.03 μM, single layer culture group
# [6] = 0.3 μM, deacylated gellan gum addition group (0.015%)
# [7] = 0.3 μM, single layer culture group
# [8] = 3 μM, deacylated gellan gum addition group (0.015%)
# [9] = 3 μM, single layer culture group
# [10] = 30 μM, deacylated gellan gum addition group (0.015%)
# [11] = 30 μM, single layer culture group
# [12] = 1 μM, deacylated gellan gum addition group (0.015%)
# [13] = 1 μM, single layer culture group
# [14] = 10 μM, deacylated gellan gum addition group (0.015%)
# [15] = 10 μM, single layer culture group
# [16] = 0.001 μM, single layer culture group
# [17] = 0.003 μM, deacylated gellan gum addition group (0.015%)
# [18] = 0.003 μM, single layer culture group
# [19] = 0.01 μM, deacylated gellan gum addition group (0.015%)
# [20] = 0.01 μM, single layer culture group
structure (smiles),measurement,setting,value
NC1(c2ccc(-c3nc4ccn5c(=O)[nH]nc5c4cc3-c3ccccc3)cc2)CCC1 [MK-2206],% Control of RLU value (ATP),HeLa cells [1]; [4],57 % Control
same,% Control of RLU value (ATP),HeLa cells [1]; [5],93 % Control
same,% Control of RLU value (ATP),HeLa cells [1]; [6],21 % Control
same,% Control of RLU value (ATP),HeLa cells [1]; [7],84 % Control
same,% Control of RLU value (ATP),HeLa cells [1]; [8],21 % Control
same,% Control of RLU value (ATP),HeLa cells [1]; [9],69 % Control
same,% Control of RLU value (ATP),HeLa cells [1]; [10],0 % Control
same,% Control of RLU value (ATP),HeLa cells [1]; [11],0 % Control
same,% Control of RLU value (ATP),A549 cells; [4],84 % Control
same,% Control of RLU value (ATP),A549 cells; [5],93 % Control
same,% Control of RLU value (ATP),A549 cells; [6],45 % Control
same,% Control of RLU value (ATP),A549 cells; [7],79 % Control
same,% Control of RLU value (ATP),A549 cells; [8],21 % Control
same,% Control of RLU value (ATP),A549 cells; [9],53 % Control
same,% Control of RLU value (ATP),A549 cells; [10],0 % Control
same,% Control of RLU value (ATP),A549 cells; [11],0 % Control
"Cc1c2oc3c(C)ccc(C(=O)N[C@@H]4C(=O)N[C@H](C(C)C)C(=O)N5CCC[C@H]5C(=O)N(C)CC(=O)N(C)[C@@H](C(C)C)C(=O)O[C@@H]4C)c3nc-2c(C(=O)N[C@@H]2C(=O)N[C@H](C(C)C)C(=O)N3CCC[C@H]3C(=O)N(C)CC(=O)N(C)[C@@H](C(C)C)C(=O)O[C@@H]2C)c(N)c1=O [Actinomycin D] (I: T[dV]P[Sar][NMeV] / II: T[dV]P[Sar][NMeV]; ester I:1-I:C, II:1-II:C; linker I:N-II:N via Actinocin(9to1))",% Control of RLU value (ATP),HeLa cells [2]; [12],4 % Control
same,% Control of absorbance at 450 nm (WST-8),HeLa cells [2]; [12],3 % Control
same,% Control of RLU value (ATP),HeLa cells [2]; [13],2 % Control
same,% Control of absorbance at 450 nm (WST-8),HeLa cells [2]; [13],2 % Control
same,% Control of RLU value (ATP),HeLa cells [2]; [14],6 % Control
same,% Control of absorbance at 450 nm (WST-8),HeLa cells [2]; [14],12 % Control
same,% Control of RLU value (ATP),HeLa cells [2]; [15],2 % Control
same,% Control of absorbance at 450 nm (WST-8),HeLa cells [2]; [15],4 % Control
CC(=O)O[C@H]1C(=O)[C@@]2(C)[C@H]([C@H](OC(=O)c3ccccc3)[C@]3(O)C[C@H](OC(=O)[C@H](O)[C@@H](NC(=O)c4ccccc4)c4ccccc4)C(C)=C1C3(C)C)[C@]1(OC(C)=O)CO[C@@H]1C[C@@H]2O [Paclitaxel],cell density,HeLa cells [3]; 0.1 μM,0.9 10^4 cells/mL
same,cell density,HeLa cells [3]; 1 μM,0.2 10^4 cells/mL
same,% Control of RLU value (ATP),HeLa cells [1]; [16],89 % Control
same,% Control of RLU value (ATP),HeLa cells [1]; [17],46 % Control
same,% Control of RLU value (ATP),HeLa cells [1]; [18],15 % Control
same,% Control of RLU value (ATP),HeLa cells [1]; [19],5 % Control
same,% Control of RLU value (ATP),HeLa cells [1]; [20],2 % Control
same,% Control of RLU value (ATP),"A549 cells; 0.001 μM, deacylated gellan gum addition group (0.015%)",93 % Control
same,% Control of RLU value (ATP),A549 cells; [16],81 % Control
same,% Control of RLU value (ATP),A549 cells; [17],52 % Control
same,% Control of RLU value (ATP),A549 cells; [18],31 % Control
same,% Control of RLU value (ATP),A549 cells; [19],32 % Control
same,% Control of RLU value (ATP),A549 cells; [20],16 % Control
C[C@@H]1C[C@H]2[C@@H]3CCC4=CC(=O)C=C[C@]4(C)[C@@]3(F)[C@@H](O)C[C@]2(C)[C@@]1(O)C(=O)CO [Dexamethasone],% Control of RLU value (ATP),HeLa cells [2]; [12],232 % Control
same,% Control of absorbance at 450 nm (WST-8),HeLa cells [2]; [12],184 % Control
same,% Control of RLU value (ATP),HeLa cells [2]; [14],241 % Control
same,% Control of absorbance at 450 nm (WST-8),HeLa cells [2]; [14],173 % Control
same,% Control of RLU value (ATP),HeLa cells [2]; [15],116 % Control
